Tested on: Hyperimmune antiserum
Experiment: Anti-allergic test in sensitized rats: percent inhibition of skin dye leakage (blue spot) for hyperimmune antiserum
Type: in vivo, Sprague-Dawley JCL strain rats
Conditions: p.o.
Experimental: Five male Sprague-Dawley JCL strain rates weighing 290-310g. were used for each dose. The animals were sensitized by intracutaneous injection of 0.1ml. of 5 times diluted reagin-like rat antiserum at 48 hours before egg albumin at their depilated backs and were injected 0.1ml. of 4 times diluted hyperimmune rat antiserum at 4 hours before. One ml. of mixture of egg albumin 5 mg. and Evans blue 5 mg. was injected intravenously. Immediately before 0.1ml. of 0.2% histamine solution was injected intracutaneously.
One hour after the injection of the antigen and dye, animals were sacrificed and the skin of the back was removed. The dye of blue spot was then extracted from the skin. The blue spot areas of the skin were punched out and were cut with clipper into small pieces. The small pieces per one blue spot were blended with 10 ml. of a 4:1 mixture of acetone and 2% solution of RBS-25 (Marumoto industrial Co., Ltd.) and rested for 16 hours. Five and 16 hours after, it was shaked for 30 minutes respectively. After centrifugation at 2000 rpm for 15 minutes, the optical density of the supernatant was determined at 620 mμ.
[…] The mean amount of dye of the test animals was compared with that of the control animals. The percent inhibition for each dose was calculated.

`CN1CCN(C(=O)c2cc(=O)c3c(OCCOc4ccccc4)cccc3o2)CC1` was tested, and the “inhibition % for Hyperimmune antiserum” value (pretreatment 30 min., dose 125 mg./kg.) was 48.2%, the “inhibition % for Hyperimmune antiserum” value (pretreatment 30 min., dose 250 mg./kg.) was 66.7% and the “inhibition % for Hyperimmune antiserum” value (pretreatment 60 min., dose 250 mg./kg.) was 45.8%. For the same compound, the “inhibition % for Hyperimmune antiserum” value (pretreatment 60 min., dose 500 mg./kg.) was 46.5%, the “inhibition % for Hyperimmune antiserum” value (pretreatment 120 min., dose 125 mg./kg.) was 37.6% and the “inhibition % for Hyperimmune antiserum” value (pretreatment 120 min., dose 250 mg./kg.) was 40.6%. The “inhibition % for Hyperimmune antiserum” value (pretreatment 120 min., dose 500 mg./kg.) was 67.7%.

— patent US4001280A, “Chromone derivatives” (Fujisawa Pharmaceutical Co., Ltd., priority 1972, dated 1977)
